According to patent US20040042961A1, “Development of an in vivo functional assay for proteases” (priority 2002, published 2004):
“Also recorded” adds a separate entry of the source. Residues, ends and D or L forms follow the SMILES beside them. *: point of attachment. Cbz = O=C(OCc1ccccc1)*; CHN2 = [N-]=[N+]=C*; CH2F = FC*

Assays:
[1] = test system: HeLa-rtTA cells; assay: Cell viability, MTT dye reduction assay; format: cell-based; conditions: 48 h; for Effect on cell viability: 0-60 μM, wild type and mutant fusion cells; for Cell viability: 60 μM
Description: (§1) FIG. 15 Adaptation of the intracellular assay to a high-throughput screening format. The assay was carried out in a 96-well microplate and fluorescence was measured using the Cytofluor. The expression of GFP fusion proteins was induced for 48 h in the presence of several inhibitors. Cell viability was determined using the MTT dye reduction assay. The average of triplicate values and the standard deviation for fluorescence and cell viability were expressed as a function of inhibitor concentration. Panel A. Relative fluorescence (fold/control) of cells expressing the wild-type preprocathepsin L-GFP fusion protein treated with various inhibitors. Panel B. The relative fluorescence of cells expressing the mutant preprocathepsin L-GFP (C25A) fusion protein in response to treatment with several inhibitors. Panel C. Percentage of viable cells expressing the wild type fusion protein after treatment with inhibitors. Panel D. The percentage of viable cells expressing the mutant fusion protein as described in Panel C.
Cell Viability Assay—The number of viable cells was evaluated by the MTT dye reduction assay with modification (24). In the presence of various concentrations of inhibitors, cells were grown in 96-well plates for 48 h. MTT reagent was then added to a final concentration of 0.5 mg/ml, and incubation at 37° C. in 5% CO2 was continued for 4 h. The resulting insoluble formazan crystals were solubilized by resuspending the cells in 100 μl of DMSO per well. Absorbance of converted dye was measured at 550/690 nm on SpectraMAX 250 (Molecular Devices). Assay values obtained from control cells were taken as 100%.

[2] = biological target: T1, cathepsin L (Homo sapiens, UniProt P07711); assay: Intracellular cathepsin L assay, wild type preprocathepsin L-GFP in HeLa-rtTA cells, 96-well plate reader; format: cell-based; conditions: 48 h; for Effect on overall level of GFP fluorescence: 0-60 μM
T1 construct: The C-terminus of the full length human preprocathepsin L is fused in frame to the N-terminus of GFP; GFP (Aequorea victoria, F64L/S65C/I167T/K238N) via BglII-NheI linker (C); expressed in transfected cells
T1 sequence (P07711 18-333 limits assumed): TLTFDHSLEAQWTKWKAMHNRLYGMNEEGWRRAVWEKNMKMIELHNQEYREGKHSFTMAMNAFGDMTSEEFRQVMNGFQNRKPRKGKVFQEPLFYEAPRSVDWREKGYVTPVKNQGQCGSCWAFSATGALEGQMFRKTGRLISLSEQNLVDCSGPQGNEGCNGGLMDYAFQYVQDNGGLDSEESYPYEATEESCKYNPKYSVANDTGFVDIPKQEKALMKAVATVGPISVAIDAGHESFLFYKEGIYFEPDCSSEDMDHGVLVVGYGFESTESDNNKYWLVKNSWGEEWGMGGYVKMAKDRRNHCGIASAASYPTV
Description: (§2) Adaptation of the assay to a 96-well plate format—The intracellular assay was performed in a 96-well microplate format using a plate reader to monitor GFP fluorescence. Three different inhibitors were used for the plate assay: Cbz-LeuLeuTyr-CHN2, Cbz-LeuLeuTyr-CH2F and E-64. These compounds are all irreversible inhibitors of cysteine proteases. Prior to measuring the fluorescence, the stably transfected pools of HeLa-rtTA cells were induced with doxycycline and cultured in presence of various concentrations of the inhibitors for 48 h.
as §1, with “Panel D. The percentage of viable cells expressing the mutant fusion protein as described in Panel C.” left out
Proteolytic Assays—For in vitro assays, purified GFP-His protein (100 μg) was incubated with 400 nM cathepsin L for 4.5 h. Aliquots were analyzed periodically to monitor the fluorescence using a CytoFluor plate reader (PerSeptive Biosystems, Framingham, Mass.) with cut-off filters of 488 nm (excitation) and […] (emission). […] For cell-based assays, stably transfected HeLa cells (stable pools) of either wild type cathepsin L-GFP or mutant cathepsin L-GFP fusions were grown in presence or absence of cathepsin inhibitors, and GFP fluorescence was monitored with various detection methods. […] Cells from one set of plates were harvested by trypsinization, resuspended in PBS, and GFP fluorescence was subsequently determined with flow cytometry. […] The cells were grown for an additional 24 h and GFP fluorescence was measured as described above. For detection with the CytoFluor plate reader, cells (400,000 cells/ml) in a total volume of 250 μl per well, were cultured in 96-well microplates. […] After the removal of medium, 200 μl of PBS was added to each well and the plates were scanned to monitor GFP fluorescence. Background fluorescence was determined from negative control cells (-doxycycline), and was subtracted from the fluorescence values obtained from induced cells that were cultured with various concentrations of inhibitors.

[3] = biological target: T1, cathepsin L; assay: Intracellular cathepsin L assay, wild type preprocathepsin L-GFP in HeLa-rtTA cells, FACS; format: cell-based; conditions: 48 h
Description: (§3) A potent cathepsin L irreversible inhibitor, Cbz-LeuLeuTyr-CHN2, was also used in this experiment. To induce cathepsin L-GFP expression, the cells were cultured in the presence of doxycycline for 48 h. […] Fluorescence that corresponds to GFP, however, is found in the peaks at higher fluorescence levels (FIGS. 13B,C). This can be observed in all cell populations expressing GFP. […] In the absence of inhibitor, the active enzyme hydrolyzes most of the GFP substrate, resulting in low fluorescence levels. […] It must be noted also that the low level of cellular fluorescence increases slightly in presence of the inhibitor, possibly due to effects on cellular events.
(§4) FIG. 13 Characterization of GFP fluorescence by FACS analysis. Expression of GFP fusion proteins was induced in the presence or absence of Z-Leu-Leu-Tyr-CHN2 inhibitor for 48 h, and the fluorescence was measured by FACS . Panel A. The fluorescence histograms of non-30 transfected HeLa-rtTA cells, cultured in absence (shaded) or in presence of 35 μM inhibitor (superimposed). A shift of the superimposed histogram depicts an increase of the background fluorescence in response to the inhibitor (see text for more details). Panel B. The fluorescence histograms of cells expressing the mutant preprocathepsin L-GFP (C25A) fusion protein, grown in absence (shaded) and in presence (superimposed) of 35 μM inhibitor. Panel C. […]

[4] = biological target: T2, non-active preprocathepsin L (C25A) mutant (Homo sapiens, UniProt P07711, C138A); assay: Control, mutant preprocathepsin L-GFP (C25A) in HeLa-rtTA cells, 96-well plate reader; format: cell-based; conditions: 0-60 μM, 48 h
T2 construct: The C-terminus of the full length human preprocathepsin L is fused in frame to the N-terminus of GFP; GFP (Aequorea victoria, F64L/S65C/I167T/K238N) via BglII-NheI linker (C); expressed in transfected cells
Description: as §2
as §1, with “Percentage of viable cells expressing the wild type fusion protein after treatment with inhibitors. Panel D. The percentage of viable cells expressing the mutant fusion protein as described in Panel C.” left out

[5] = biological target: T2, non-active preprocathepsin L (C25A) mutant; assay: Control, mutant preprocathepsin L-GFP (C25A) in HeLa-rtTA cells, FACS; format: cell-based; conditions: inactive cathepsin L (C25A), up to 35 μM inhibitor, 48 h
Description: as §3, §4

[6] = biological target: T3, caspase 8 (Homo sapiens, UniProt Q14790); assay: Cell-based assay for caspase 8 in Jurkat cells (GFP double mutant, anti-Fas Ab, guanidine-HCl)
T3 construct: endogenous in cells; host or cells: Jurkat-rtTA cells
From the text: Two factors are particularly important for the successful conversion of GFP into a preferred protease substrate: (i) the cleavage of the accessible substrate recognition sequence and (ii) the susceptibility of the cleaved GFP relative to the intact (non-cleaved) GFP towards unfolding. In the present work, it was preferred to introduce two cleavage sites in order to sufficiently destabilize GFP so that rapid unfolding could be observed at pH 5.5 in vitro. This is represented by a Scheme in FIG. 6. FIG. 6 is a graphical depiction of fluorescence as a function of the duration of exposure to guanidine-HCl. The assay was performed in Jurkat cells, using an anti-Fas Ab for caspase 8 activation. The assay is run in a 96-well plate format, using the Cytofluor plate reader. […] Without addition of Guanidine-HCl, no change in fluorescence was observed. However, a functional cellular assay (i.e. with a fluorescence readout) was obtained by incubating the cells with the denaturing agent Guanidine-HCl prior to analysis.
Without addition of Guanidine-HCl, no change in fluorescence is observed. However, a functional cellular assay (i.e. with a fluorescence readout) was obtained by incubating the cells with the denaturing agent Guanidine-HCl prior to analysis (FIG. 6).
The assay was performed in Jurkat cells and the GFP substrate was delivered by means of transient transfection. […]

T2 sequence (P07711 114-333 C138A): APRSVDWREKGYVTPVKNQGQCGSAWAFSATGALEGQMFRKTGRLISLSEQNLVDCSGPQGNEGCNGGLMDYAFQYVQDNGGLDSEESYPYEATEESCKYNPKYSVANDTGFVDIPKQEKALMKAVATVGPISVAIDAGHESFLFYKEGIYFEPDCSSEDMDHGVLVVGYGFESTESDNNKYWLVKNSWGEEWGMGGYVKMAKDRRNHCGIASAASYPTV
T3 sequence (Q14790 217-374 limits assumed): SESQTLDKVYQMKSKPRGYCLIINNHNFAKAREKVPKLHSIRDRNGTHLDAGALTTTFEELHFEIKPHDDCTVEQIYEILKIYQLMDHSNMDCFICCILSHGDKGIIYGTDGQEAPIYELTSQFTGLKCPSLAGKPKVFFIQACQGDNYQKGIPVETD
T3 sequence (Q14790 385-479 limits assumed): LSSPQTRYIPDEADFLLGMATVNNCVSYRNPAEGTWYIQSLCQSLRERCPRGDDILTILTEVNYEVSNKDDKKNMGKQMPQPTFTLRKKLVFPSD

| Effect on overall level of GFP fluorescence [2] | Fluorescence increase relative to control cells without inhibitor ([2]; 60 μM) [fold] | GFP fluorescence ([3]; 35 μM inhibitor, doxycycline) | Increase of fluorescence (fluorescence index) ([3]; inhibitor concentration increased from 0 to 35 μM) | Fluorescence of cells expressing mutant non-active fusion protein [4] | Response of fluorescence with inhibitor concentration ([6]; Fas-dependent hydrolysis of GFP, guanidine-HCl before reading) | Hydrolysis of GFP mutant in response to Fas-induced apoptosis ([6]; Jurkat-rtTA cells, Western with polyclonal anti-GFP Ab) | Structure (SMILES) | Effect on cell viability [1] | Cell viability [1] | GFP fluorescence [5] |
| --- | --- | --- | --- | --- | --- | --- | --- | --- | --- | --- |
| no significant effect | – | – | – | – | – | – | CC(C)C[C@H](NC(=O)[C@H]1O[C@@H]1C(=O)O)C(=O)NCCCCN=C(N)N (relative stereo) [E-64, N-[N-(L-3-trans-carboxyoxirane-2-carbonyl)-L-leucyl]amino-4-guanidinobutane] | Almost no effect | – | – |
| no significant effect | – | – | – | – | – | – | CC(C)C[C@H](NC(=O)OCc1ccccc1)C(=O)N[C@@H](CC(C)C)C(=O)N[C@@H](Cc1ccc(O)cc1)C(=O)CF [Cbz-LeuLeuTyr-CH2F] (Cbz-Leu-Leu-Tyr-CH2F) | inversely proportional to the inhibitor concentration | approximately 50% | – |
| dose-dependent increase | 20 | significant increase | up to 5 fold | small increase | – | – | CC(C)C[C@H](NC(=O)OCc1ccccc1)C(=O)N[C@@H](CC(C)C)C(=O)N[C@@H](Cc1ccc(O)cc1)C(=O)C=[N+]=[N-] [Cbz-LeuLeuTyr-CHN2] (Cbz-Leu-Leu-Tyr-CHN2) | inversely proportional to the inhibitor concentration | approximately 50% | virtually no change; also recorded: remained unchanged |
| – | – | – | – | – | dose-dependent response | inhibited | COC(=O)C[C@H](NC(=O)[C@H](C)NC(=O)[C@@H](NC(=O)OCc1ccccc1)C(C)C)C(=O)CF [Z-VAD-FMK] (Cbz-Val-Ala-Asp(OMe)-CH2F) | – | – | – |
